Source: patent US12077539B2, “Imidazole and triazole KRAS inhibitors” (Incyte Corporation, priority 2021, dated 2024)

How the values were obtained:
KRAS G12D = KRAS G12D (Homo sapiens, UniProt P01116, G12D); assay: GDP-GTP exchange assay, KRAS G12D (bodipy-GDP/GppNHp, SOS1); type: biochemical; settings: bodipy-loaded KRAS G12D 2.5 nM, 4 hours incubation after GppNHp-SOS1; read-out: G12D_exchange (KRAS_G12D exchange assay IC50)
Experimental: The inhibitor potency of the exemplified compounds was determined in a fluorescence based guanine nucleotide exchange assay, which measures the exchange of bodipy-GDP (fluorescently labeled GDP) for GppNHp (Non-hydrolyzable GTP analog) to generate the active state of KRAS in the presence of SOS1 (guanine nucleotide exchange factor). Inhibitors were serially diluted in DMSO and a volume of 0.1 μL was transferred to the wells of a black low volume 384-well plate. 5 μL/well volume of bodipy-loaded KRAS G12C diluted to 5 nM in assay buffer (25 mM Hepes pH 7.5, 50 mM NaCl, 10 mM MgCl2 and 0.01% Brij-35) was added to the plate and pre-incubated with inhibitor for 2 hours at ambient temperature. Appropriate controls (enzyme with no inhibitor or with a G12C inhibitor (AMG-510)) were included on the plate. The exchange was initiated by the addition of a 5 μL/well volume containing 1 mM GppNHp and 300 nM SOS1 in assay buffer. The 10 μL/well reaction concentration of the bodipy-loaded KRAS G12C, GppNHp, and SOS1 were 2.5 nM, 500 uM, and 150 nM, respectively. The reaction plates were incubated at ambient temperature for 2 hours, a time estimated for complete GDP-GTP exchange in the absence of inhibitor. […] Fluorescence intensities were measured on a PheraStar plate reader instrument (BMG Labtech) with excitation at 485 nm and emission at 520 nm. […]

KRAS G12C = KRAS G12C (Homo sapiens, UniProt P01116, G12C); assay: GDP-GTP exchange assay, KRAS G12C (bodipy-GDP/GppNHp, SOS1); type: biochemical; settings: bodipy-loaded KRAS G12C 2.5 nM, 2 hours pre-incubation, 2 hours exchange with GppNHp and SOS1; read-out: G12C_exchange (KRAS_G12C exchange assay IC50)
Experimental: The inhibitor potency of the exemplified compounds was determined in a fluorescence based guanine nucleotide exchange assay, which measures the exchange of bodipy-GDP (fluorescently labeled GDP) for GppNHp (Non-hydrolyzable GTP analog) to generate the active state of KRAS in the presence of SOS1 (guanine nucleotide exchange factor). Inhibitors were serially diluted in DMSO and a volume of 0.1 μL was transferred to the wells of a black low volume 384-well plate. 5 μL/well volume of bodipy-loaded KRAS G12C diluted to 5 nM in assay buffer (25 mM Hepes pH 7.5, 50 mM NaCl, 10 mM MgCl2 and 0.01% Brij-35) was added to the plate and pre-incubated with inhibitor for 2 hours at ambient temperature. Appropriate controls (enzyme with no inhibitor or with a G12C inhibitor (AMG-510)) were included on the plate. The exchange was initiated by the addition of a 5 μL/well volume containing 1 mM GppNHp and 300 nM SOS1 in assay buffer. The 10 μL/well reaction concentration of the bodipy-loaded KRAS G12C, GppNHp, and SOS1 were 2.5 nM, 500 uM, and 150 nM, respectively. The reaction plates were incubated at ambient temperature for 2 hours, a time estimated for complete GDP-GTP exchange in the absence of inhibitor. For the KRAS G12D and G12V mutants, similar guanine nucleotide exchange assays were used with 2.5 nM as final concentration for the bodipy loaded KRAS proteins and with 4 hours and 3 hours incubation after adding GppNHp-SOS1 mixture for G12D and G12V respectively. A cyclic peptide described to selectively bind G12D mutant (Sakamoto et al., BBRC 484.3 (2017), 605-611) or internal compounds with confirmed binding were used as positive controls in the assay plates. Fluorescence intensities were measured on a PheraStar plate reader instrument (BMG Labtech) with excitation at 485 nm and emission at 520 nm.
Either GraphPad prism or XLfit was used to analyze the data. The IC50 values were derived by fitting the data to a four parameter logistic equation producing a sigmoidal dose-response curve with a variable Hill coefficient. Prism equation: Y=Bottom+(Top−Bottom)/(1+10^((Log IC50−X)*Hill slope)); XLfit equation: Y=(A+((B−A)/(1+((X/C)^D)))) where X is the logarithm of inhibitor concentration and Y is the response.

[1] = test system: MIA PaCa-2 (KRAS G12C) cells; assay: Cellular pERK HTRF assay, KRAS_G12C pERK; type: cell-based; settings: Homo sapiens, 4 hours incubation, HTRF phospho-ERK 1/2, read-out: G12C_pERK (KRAS_G12C pERK assay IC50)
Experimental: MIA PaCa-2 (KRAS G12C; ATCC® CRL-1420), A427 (KRAS G12D; ATCC® HTB53), HPAF-II (KRAS G12D; ATCC® CRL-1997) and NCI-H838 (KRAS WT; ATCC® CRL-5844) cells are purchased from ATCC and maintained in RPMI 1640 media supplemented with 10% FBS (Gibco/Life Technologies). The cells are plated at 5000 cells per well (8 uL) into Greiner 384-well low volume, flat-bottom, tissue culture treated white plates and incubated overnight at 37° C., 5% CO2. The next morning, test compound stock solutions are diluted in media at 3× the final concentration, and 4 uL are added to the cells. The plate is mixed by gentle rotation for 30 seconds (250 rpm) at room temperature. The cells are incubated with the KRAS G12C and G12D compounds for 4 hours or 2 hours respectively at 37° C., 5% CO2.
4 uL of 4× lysis buffer with blocking reagent (1:25) (Cisbio) are added to each well and plates are rotated gently (300 rpm) for 30 minutes at room temperature. 4 uL per well of Cisbio anti Phospho-ERK 1/2 d2 is mixed with anti Phospho-ERK 1/2 Cryptate (1:1) are added to each well, mixed by rotation and incubated overnight in the dark at room temperature. Plates are read on the Pherastar plate reader at 665 nm and 620 nm wavelengths. IC50 determination is performed by fitting the curve of inhibitor percent inhibition versus the log of the inhibitor concentration using the GraphPad Prism 7 software.

Sequence of KRAS G12C (P01116 1-188 isoform P01116-2 G12C): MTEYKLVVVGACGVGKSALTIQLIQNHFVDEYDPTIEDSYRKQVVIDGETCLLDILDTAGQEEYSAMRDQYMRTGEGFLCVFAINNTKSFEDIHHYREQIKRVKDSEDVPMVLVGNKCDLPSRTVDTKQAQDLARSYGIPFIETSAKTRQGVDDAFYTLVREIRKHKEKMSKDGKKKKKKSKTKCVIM
Sequence of KRAS G12D (P01116 1-188 isoform P01116-2 G12D): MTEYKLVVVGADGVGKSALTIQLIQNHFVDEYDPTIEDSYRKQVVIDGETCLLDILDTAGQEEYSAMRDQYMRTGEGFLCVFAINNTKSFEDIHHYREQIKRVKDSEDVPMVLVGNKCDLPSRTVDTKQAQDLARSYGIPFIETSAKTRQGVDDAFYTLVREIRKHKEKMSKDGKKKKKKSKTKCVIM

| Structure (SMILES) | IC50 (KRAS G12D) | IC50 (KRAS G12C) | IC50 [1] |
| --- | --- | --- | --- |
| CNCCc1nc2c(N3CC(N(C)C)C3)nc3c(=O)n(-c4cc(O)cc5ccccc45)ccc3c2n1[C@H]1[C@H]2CN[C@@H]1C2 (racemic) [Example 3, 1-((1R,4R,5S)-2-azabicyclo[2.1.1]hexan-5-yl)-4-(3-(dimethylamino)azetidin-1-yl)-7-(3-hydroxynaphthalen-1-yl)-2-(2-(methylamino)ethyl)-1,7-dihydro-6H-imidazo[4,5-c][1,7]naphthyridin-6-one] | 100 to 1000 nM |  |  |
| C=CC(=O)N1CC[C@H](n2cnc3c(N4CC(N(C)C)C4)nc4c(=O)n(-c5cc(O)cc6ccccc56)ccc4c32)C[C@H]1CC#N [Example 1, 2-((2S,4S)-1-acryloyl-4-(4-(3-(dimethylamino)azetidin-1-yl)-7-(3-hydroxynaphthalen-1-yl)-6-oxo-6,7-dihydro-1H-imidazo[4,5-c][1,7]naphthyridin-1-yl)piperidin-2-yl)acetonitrile] |  | ≤ 100 nM | 1000 to 5000 nM |
| CC#CC(=O)N1CC[C@H](n2cnc3c(N4CC(N(C)C)C4)nc4c(=O)n(-c5cc(O)cc6ccccc56)ccc4c32)C[C@H]1CC#N [Example 2, 2-((2S,4S)-1-(but-2-ynoyl)-4-(4-(3-(dimethylamino)azetidin-1-yl)-7-(3-hydroxynaphthalen-1-yl)-6-oxo-6,7-dihydro-1H-imidazo[4,5-c][1,7]naphthyridin-1-yl)piperidin-2-yl)acetonitrile] |  | ≤ 100 nM | 1000 to 5000 nM |
| C=CC(=O)N1CC[C@H](n2cnc3c(N4CC(N(C)C)C4)nc4c(c32)CCN(c2cccc3ccccc23)C4)C[C@H]1CC#N [Example 4, 2-((2S,4S)-1-acryloyl-4-(4-(3-(dimethylamino)azetidin-1-yl)-7-(naphthalen-1-yl)-6,7,8,9-tetrahydro-1H-imidazo[4,5-c][1,7]naphthyridin-1-yl)piperidin-2-yl)acetonitrile] |  | 100 to 1000 nM |  |
| C=CC(=O)N1CC[C@H](n2cnc3c(N4CC(N(C)C)C4)nc4c(c32)CCN(c2cc(O)cc3ccccc23)C4)C[C@H]1CC#N [Example 5, 2-((2S,4S)-1-acryloyl-4-(4-(3-(dimethylamino)azetidin-1-yl)-7-(3-hydroxynaphthalen-1-yl)-6,7,8,9-tetrahydro-1H-imidazo[4,5-c][1,7]naphthyridin-1-yl)piperidin-2-yl)acetonitrile] |  | ≤ 100 nM | 1000 to 5000 nM |
| C=CC(=O)N1CC[C@H](n2cnc3c(N4CC(N(C)C)C4)nc4c(=O)n(-c5cccc6ccccc56)c(C(F)(F)F)cc4c32)C[C@H]1CC#N [Example 6, 2-((2S,4S)-1-acryloyl-4-(4-(3-(dimethylamino)azetidin-1-yl)-7-(naphthalen-1-yl)-6-oxo-8-(trifluoromethyl)-6,7-dihydro-1H-imidazo[4,5-c][1,7]naphthyridin-1-yl)piperidin-2-yl)acetonitrile] |  | ≤ 100 nM | ≤ 100 nM |
| C=CC(=O)N1CCC(n2cnc3c(-c4cccnc4C)nc4c(=O)n(-c5cccc6ccccc56)c(C(F)(F)F)cc4c32)C[C@H]1CC#N (stereo partly drawn) [Example 7, 2-((2S)-1-acryloyl-4-(4-(2-methylpyridin-3-yl)-7-(naphthalen-1-yl)-6-oxo-8-(trifluoromethyl)-6,7-dihydro-1H-imidazo[4,5-c][1,7]naphthyridin-1-yl)piperidin-2-yl)acetonitrile] |  | ≤ 100 nM | ≤ 100 nM |

Continued, values first:

| IC50 (KRAS G12D) | IC50 (KRAS G12C) | IC50 [1] | Structure (SMILES) |
| --- | --- | --- | --- |
|  | ≤ 100 nM | ≤ 100 nM | C=CC(=O)N1CC[C@H](n2cnc3c(O[C@@H](C)[C@@H]4CCCN4C)nc4c(=O)n(-c5cccc(Cl)c5C)c(C(F)(F)F)cc4c32)C[C@H]1CC#N [Example 8, 2-((2S,4S)-1-acryloyl-4-(7-(3-chloro-2-methylphenyl)-4-((S)-1-((S)-1-methylpyrrolidin-2-yl)ethoxy)-6-oxo-8-(trifluoromethyl)-6,7-dihydro-1H-imidazo[4,5-c][1,7]naphthyridin-1-yl)piperidin-2-yl)acetonitrile] |
|  | ≤ 100 nM | ≤ 100 nM | CC#CC(=O)N1CC[C@H](n2cnc3c(O[C@@H](C)[C@@H]4CCCN4C)nc4c(=O)n(-c5cccc(Cl)c5C)c(C(F)(F)F)cc4c32)C[C@H]1CC#N [Example 9, 2-((2S,4S)-1-(but-2-ynoyl)-4-(7-(3-chloro-2-methylphenyl)-4-((S)-1-((S)-1-methylpyrrolidin-2-yl)ethoxy)-6-oxo-8-(trifluoromethyl)-6,7-dihydro-1H-imidazo[4,5-c][1,7]naphthyridin-1-yl)piperidin-2-yl)acetonitrile] |
|  | ≤ 100 nM | 100 to 1000 nM | C=C(F)C(=O)N1CC[C@H](n2cnc3c(O[C@@H](C)[C@@H]4CCCN4C)nc4c(=O)n(-c5cccc(Cl)c5C)c(C(F)(F)F)cc4c32)C[C@H]1CC#N [Example 10, 2-((2S,4S)-4-(7-(3-chloro-2-methylphenyl)-4-((S)-1-((S)-1-methylpyrrolidin-2-yl)ethoxy)-6-oxo-8-(trifluoromethyl)-6,7-dihydro-1H-imidazo[4,5-c][1,7]naphthyridin-1-yl)-1-(2-fluoroacryloyl)piperidin-2-yl)acetonitrile] |
|  | ≤ 100 nM | ≤ 100 nM | C=CC(=O)N1CC[C@H](n2nnc3c(N4CC(C)(N(C)C)C4)nc4c(=O)n(-c5cccc(Cl)c5C)c(C(F)(F)F)cc4c32)C[C@H]1CC#N [Example 11, 2-((2S,4S)-1-acryloyl-4-(7-(3-chloro-2-methylphenyl)-4-(3-(dimethylamino)-3-methylazetidin-1-yl)-6-oxo-8-(trifluoromethyl)-6,7-dihydro-1H-[1,2,3]triazolo[4,5-c][1,7]naphthyridin-1-yl)piperidin-2-yl)acetonitrile] |
|  | ≤ 100 nM | ≤ 100 nM | Cc1c(Cl)cccc1-n1c(C(F)(F)F)cc2c(nc(N3CC(C)(N(C)C)C3)c3nnn([C@H]4CCN(C(=O)/C=C/CF)[C@H](CC#N)C4)c32)c1=O [Example 12, 2-((2S,4S)-4-(7-(3-chloro-2-methylphenyl)-4-(3-(dimethylamino)-3-methylazetidin-1-yl)-6-oxo-8-(trifluoromethyl)-6,7-dihydro-1H-[1,2,3]triazolo[4,5-c][1,7]naphthyridin-1-yl)-1-((E)-4-fluorobut-2-enoyl)piperidin-2-yl)acetonitrile] |
